Experimental data from patent US9079895B2, “Morpholino compounds, uses and methods” (University of Dundee, priority 2012, dated 2015).
Structures can show the parent of a compound that is named as a salt.

What was measured:
5HT1a receptor = 5HT1a receptor (Homo sapiens (Human), UniProt P08908); assay: Secondary radioligand binding assay, 5HT1a; conditions: average of at least two experiments
5HT2a receptor = 5HT2a receptor (Homo sapiens (Human), UniProt P28223); assay: Secondary radioligand binding assay, 5HT2a; conditions: average of at least two experiments
Chain of 5HT2a receptor (P28223 whole entry): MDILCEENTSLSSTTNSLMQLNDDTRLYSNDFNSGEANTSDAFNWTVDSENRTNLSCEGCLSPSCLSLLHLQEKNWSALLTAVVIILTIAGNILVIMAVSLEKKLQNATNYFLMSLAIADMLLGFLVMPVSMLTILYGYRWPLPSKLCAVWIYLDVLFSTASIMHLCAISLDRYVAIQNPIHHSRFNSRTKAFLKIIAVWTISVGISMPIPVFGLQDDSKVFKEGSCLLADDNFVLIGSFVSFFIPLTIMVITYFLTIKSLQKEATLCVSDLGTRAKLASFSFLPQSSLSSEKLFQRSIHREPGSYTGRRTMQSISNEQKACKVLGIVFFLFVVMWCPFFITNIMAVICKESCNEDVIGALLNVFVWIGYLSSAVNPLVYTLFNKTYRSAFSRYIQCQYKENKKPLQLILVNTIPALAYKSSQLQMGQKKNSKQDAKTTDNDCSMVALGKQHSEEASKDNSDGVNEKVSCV

5HT2c receptor = 5HT2c receptor (Homo sapiens (Human), UniProt P28335); assay: Secondary radioligand binding assay, 5HT2c; conditions: average of at least two experiments
Chain of 5HT2c receptor (P28335 33-458): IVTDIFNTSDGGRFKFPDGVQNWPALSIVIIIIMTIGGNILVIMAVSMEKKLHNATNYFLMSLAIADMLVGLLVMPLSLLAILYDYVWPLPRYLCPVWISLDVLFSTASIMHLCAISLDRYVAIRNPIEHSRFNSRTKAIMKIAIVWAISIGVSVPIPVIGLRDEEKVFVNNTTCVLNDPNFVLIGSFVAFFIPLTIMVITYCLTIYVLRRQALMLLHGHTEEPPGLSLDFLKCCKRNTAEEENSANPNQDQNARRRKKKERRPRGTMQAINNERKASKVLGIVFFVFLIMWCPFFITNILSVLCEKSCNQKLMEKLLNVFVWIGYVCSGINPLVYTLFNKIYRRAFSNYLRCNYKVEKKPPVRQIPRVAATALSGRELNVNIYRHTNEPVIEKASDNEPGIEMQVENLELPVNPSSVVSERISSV

dopamine D4 receptor = dopamine D4 receptor (Homo sapiens (Human), UniProt P21917); assay: Secondary radioligand binding assay, D4; conditions: receptor binding; average of at least two experiments; read-out: Ki D4
Chain of dopamine D4 receptor (P21917 whole entry, species assumed): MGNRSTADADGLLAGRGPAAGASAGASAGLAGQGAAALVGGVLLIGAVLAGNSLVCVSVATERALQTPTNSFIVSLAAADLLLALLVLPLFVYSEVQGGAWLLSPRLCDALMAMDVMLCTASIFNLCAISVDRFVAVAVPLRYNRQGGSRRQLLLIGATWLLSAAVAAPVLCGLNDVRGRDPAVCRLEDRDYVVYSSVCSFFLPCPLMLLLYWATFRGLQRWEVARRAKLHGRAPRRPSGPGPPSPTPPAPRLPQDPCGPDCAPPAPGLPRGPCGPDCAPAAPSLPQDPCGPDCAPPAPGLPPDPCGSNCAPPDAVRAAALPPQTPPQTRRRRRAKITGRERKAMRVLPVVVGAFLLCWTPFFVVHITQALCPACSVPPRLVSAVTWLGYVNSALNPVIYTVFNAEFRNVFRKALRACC
Procedure: 1. Secondary Radioligand Binding Assays
The detailed experimental protocols for the radioligand and functional receptor assays are available on the NIMH PDSP website at http://pdsp.med.unc.edu/UNC-CH %20Protocol %20Book.pdf.
Radioligand is diluted to five times the assay concentration (see Table 18) in Standard Binding Buffer. Typically, the assay concentration of radioligand is a value between one half the KD and the KD of a particular radioligand at its target. 50 μl aliquots of radioligand are dispensed into the wells of a 96-well plate containing 100 μl of Standard Binding Buffer. Then, duplicate 50 μl aliquots of the test and reference compound dilutions are added.
The 250 μl reactions are incubated at room temperature and shielded from light (to prevent photolysis of light-sensitive ligands) for 1.5 hours, then harvested by rapid filtration onto Whatman GF/B glass fiber filters pre-soaked with 0.3% polyethyleneimine using a 96-well Brandel harverster. Four rapid 500 μl washes are performed with chilled Standard Binding Buffer to reduce non-specific binding. Filters are placed in 6 ml scintillation tubes and allowed to dry overnight. The next day, 4 ml of EcoScint scintillation cocktail (National Diagnostics) are added to each tube. The tubes are capped, labeled, and counted by liquid scintillation counting. […] The filter mats are dried, then scintillant is melted onto the filters and the radioactivity retained on the filters is counted in a Microbeta scintillation counter.
Raw data (dpm) representing total radioligand binding (i.e. specific+non-specific binding) are plotted as a function of the logarithm of the molar concentration of the competitor (i.e. test or reference compound).
B. Dopamine Receptors: D1, D2, D3, D4, D5 Assay Buffers: Dopamine Binding Buffer (50 mM NaCl, 50 mM HEPES-HCl, 5 mM MgCl2, 0.5 mM EDTA, pH 7.4) Membrane Fraction Source: Transiently or stably transfected cell lines (e.g. HEK293, COS, CHO, NIH3T3)
The method is carried out in the manner described for the serotonin receptor assay above. Eleven dilutions (5× assay concentration) of the test and reference (see Table 19) compounds are prepared in Dopamine Binding Buffer by serial dilution, as previously described. Radioligand is diluted to five times the assay concentration (see Table 20) in Dopamine Binding Buffer.

Chain of 5HT1a receptor (P08908 whole entry): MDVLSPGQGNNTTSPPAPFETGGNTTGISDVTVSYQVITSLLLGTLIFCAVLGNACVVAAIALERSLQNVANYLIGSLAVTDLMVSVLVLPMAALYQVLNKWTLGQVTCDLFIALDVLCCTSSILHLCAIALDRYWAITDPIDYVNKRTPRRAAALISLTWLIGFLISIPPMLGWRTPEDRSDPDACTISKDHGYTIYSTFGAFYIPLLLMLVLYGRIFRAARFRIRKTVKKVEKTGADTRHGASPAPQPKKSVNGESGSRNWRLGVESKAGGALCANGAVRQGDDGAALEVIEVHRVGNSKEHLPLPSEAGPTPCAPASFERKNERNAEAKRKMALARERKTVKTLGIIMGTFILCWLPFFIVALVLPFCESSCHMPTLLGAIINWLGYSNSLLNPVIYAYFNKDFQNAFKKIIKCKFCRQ

Ki (5HT1a receptor) [µM]	Ki (5HT2a receptor) [µM]	Ki (5HT2c receptor) [µM]	Ki (dopamine D4 receptor) [µM]	SMILES
1.47	3.78	–	–	COc1cccc(OC[C@H]2CN(CCN3CCc4ccccc43)CCO2)c1 [Compound 25r, (R)-4-(2-(Indolin-1-yl)ethyl)-2-((3-methoxyphenoxy)methyl)morpholine]
–	0.374	1.11	3.93	Fc1ccc(OC[C@@H]2CN(CCN3CCc4ccccc43)CCO2)cc1 [Compound 32s, (S)-2-((4-fluorophenoxy)methyl)-4-(2-(indolin-1-yl)ethyl)morpholine hydrochloride]
